The results in this text go back to ChEMBL document CHEMBL1201862, “PubChem BioAssay data set” (2004).

The structures appear in SMILES notation.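 Results reflect a 48-hour exposure of cells in 96-well plates to compound at five concentrations. At the GI50, growth is halved.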 Active and inactive are the calls of the source. Rule as the data show it: active = GI50 up to about 1.1 µM and inactive = higher.

Among the test systems are MOLT-4; HCT-116; NCI-H460; OVCAR-3; LOX IMVI; UACC-257; SN12C; HOP-62; SW-620; EKVX; ACHN; SNB-75; UACC-62; OVCAR-8; M14; 786-0; DMS-114; Malme-3M; MDA-MB-231; T47D.
Common to all, as to assay: NCI anticancer screen, dose series, 48 h

Consider `CC1(C)C=C(N2CCN(C3=CC(C)(C)NC(C)(C)C3)CC2)CC(C)(C)N1`, for which the GI50 in the experiment on MOLT-4, with HCT-116, with NCI-H460, with OVCAR-3, in the experiment with LOX IMVI and in the experiment on UACC-257 was > 100 µM (inactive) throughout. Further, the GI50 in the experiment on SN12C, in the experiment on HOP-62, with SW-620, with EKVX, with ACHN and in the experiment with SNB-75 was > 100 µM (inactive) each time. Further, the GI50 in the experiment on UACC-62, in the experiment on OVCAR-8, in the experiment with M14, in the experiment on 786-0 and with DMS-114 was > 100 µM (inactive) in each case.

`COc1ccc2c(c1)[n+]([O-])c(C(=O)CC(=O)C(=O)Nc1cccc(C)c1C)c(C)[n+]2[O-]`: the GI50 with MOLT-4, in the experiment with HCT-116, in the experiment on NCI-H460, in the experiment on OVCAR-3, with Malme-3M and in the experiment on LOX IMVI was > 100 µM (inactive) in each case. The GI50 in the experiment with UACC-257, in the experiment on SN12C, with HOP-62, in the experiment on SW-620, in the experiment with EKVX and in the experiment with ACHN was > 100 µM (inactive) each time. The GI50 with UACC-62, with OVCAR-8, in the experiment with M14, in the experiment with 786-0 and in the experiment on DMS-114 was > 100 µM (inactive) throughout.

In the case of `CC(=O)CC(=O)Nc1ccc(OS(N)(=O)=O)cc1`, the GI50 in the experiment with MOLT-4, in the experiment with HCT-116, with NCI-H460, in the experiment with OVCAR-3, in the experiment on Malme-3M and with UACC-257 was > 100 µM (inactive) each time. The GI50 in the experiment on SN12C, with HOP-62, in the experiment on SW-620, with EKVX, in the experiment with ACHN and in the experiment on SNB-75 was > 100 µM (inactive) throughout. Besides, the GI50 with UACC-62, in the experiment on OVCAR-8, with M14, with 786-0 and in the experiment on DMS-114 was > 100 µM (inactive) in each case.

Regarding `Cc1ccc(N2C(=O)/C(=C3\Sc4c(nc(C)n(C)c4=O)N3c3ccccc3)SC2=S)cc1`, the GI50 in the experiment on MOLT-4 is > 100 µM (inactive); with HCT-116 it was 64.7 µM (inactive); in the experiment on NCI-H460 it was 19.1 µM (inactive); in the experiment with LOX IMVI, > 100 µM (inactive); in the experiment on UACC-257, > 100 µM (inactive); in the experiment on SN12C, 43.4 µM (inactive). Further, the GI50 was > 100 µM (inactive) with SW-620; > 100 µM (inactive) with EKVX; > 100 µM (inactive) in the experiment with ACHN; 28.6 µM (inactive) in the experiment on SNB-75; 45.7 µM (inactive) with UACC-62; 27.9 µM (inactive) in the experiment on OVCAR-8. Besides, the values for the GI50 with M14, with 786-0 and with DMS-114 were > 100 µM (inactive), 36.9 µM (inactive) and 35.6 µM (inactive), respectively.

On to `CCOC(=O)/C(=C\c1ccc(OCc2ccccc2)c(OC)c1)C(=O)c1ccccc1`, for which the GI50 is 18.3 µM (inactive) in the experiment on MOLT-4; 17.5 µM (inactive) with HCT-116; 22 µM (inactive) with OVCAR-3; 16.7 µM (inactive) in the experiment on Malme-3M; 15.9 µM (inactive) in the experiment with LOX IMVI; > 10 µM (inactive) with UACC-257. Also, the GI50 is 23 µM (inactive) with SN12C; 18.9 µM (inactive) in the experiment on HOP-62; 18.4 µM (inactive) with SW-620; 27.4 µM (inactive) in the experiment on EKVX; 18.1 µM (inactive) in the experiment on ACHN; 23.3 µM (inactive) in the experiment with UACC-62. Further, the GI50 was > 10 µM (inactive) in the experiment on OVCAR-8, 15 µM (inactive) in the experiment with M14, 20 µM (inactive) in the experiment with 786-0 and 19.7 µM (inactive) in the experiment on DMS-114.

With `CC(=O)OCc1c2ccccc2c(C)c2c1cc(F)c1ccccc12`, the GI50 with MOLT-4 is 7.74 µM (inactive); in the experiment on HCT-116, 31.3 µM (inactive); in the experiment on OVCAR-3, 22.9 µM (inactive); in the experiment with Malme-3M, 52.2 µM (inactive); in the experiment with LOX IMVI, 18.5 µM (inactive); in the experiment with UACC-257 it was > 100 µM (inactive). For the same molecule, the GI50 in the experiment with SN12C was 15.1 µM (inactive); in the experiment on HOP-62 it was 45.6 µM (inactive); in the experiment with SW-620, 20.5 µM (inactive); in the experiment with EKVX, 34.4 µM (inactive); in the experiment on ACHN, 17.5 µM (inactive); in the experiment on SNB-75, 22.9 µM (inactive). In addition, the GI50 in the experiment with UACC-62 was 20.7 µM (inactive); with OVCAR-8, 18.9 µM (inactive); in the experiment with M14 it was 34 µM (inactive); in the experiment with 786-0 it was 30.1 µM (inactive); in the experiment on DMS-114 it was 31.5 µM (inactive).

Consider `CCN(CC)CCn1ncc2c3c(=O)c4cccnc4n(CCN(CC)CC)c3ccc21`, for which the GI50 in the experiment with MOLT-4 is 4.39 µM (inactive); in the experiment with HCT-116 it was 3.54 µM (inactive); in the experiment on NCI-H460 it was 6.18 µM (inactive); with OVCAR-3, 8.11 µM (inactive); in the experiment on Malme-3M, > 10 µM (inactive); in the experiment on LOX IMVI, 5.41 µM (inactive). Moreover, the GI50 in the experiment with UACC-257 is > 10 µM (inactive); in the experiment with SN12C it was 8.87 µM (inactive); with MDA-MB-231, > 10 µM (inactive); in the experiment on HOP-62 it was > 10 µM (inactive); in the experiment with SW-620, 3.77 µM (inactive); in the experiment on EKVX, > 10 µM (inactive). Besides, the GI50 was 5.21 µM (inactive) with ACHN; 9.66 µM (inactive) in the experiment on SNB-75; > 10 µM (inactive) with UACC-62; 7.93 µM (inactive) with OVCAR-8; > 10 µM (inactive) with T47D; > 10 µM (inactive) with M14. Moreover, the GI50 in the experiment on 786-0 was 5.97 µM (inactive).

As to `N#Cc1c2c(c(N)oc1=O)C(c1ccccc1)CC(=O)N2` (configuration not stated), the GI50 with MOLT-4, with HCT-116, in the experiment on NCI-H460, in the experiment with OVCAR-3, in the experiment on Malme-3M and in the experiment with LOX IMVI was > 100 µM (inactive) each time. Also, the GI50 in the experiment on UACC-257, in the experiment on SN12C, in the experiment on MDA-MB-231, in the experiment with HOP-62, in the experiment on SW-620 and in the experiment on EKVX was > 100 µM (inactive) in each case. In addition, the GI50 in the experiment with ACHN, in the experiment with SNB-75, in the experiment on UACC-62, in the experiment on OVCAR-8, with T47D and in the experiment with M14 was > 100 µM (inactive) in each case. For the same molecule, the GI50 with 786-0 was > 100 µM (inactive).

Consider `Cc1ccc2c(c1)C(=O)/C(=C1/CCc3ccc(C)cc31)C2`, for which the GI50 in the experiment on MOLT-4 was > 100 µM (inactive); in the experiment on HCT-116, 59 µM (inactive); in the experiment with NCI-H460 it was > 100 µM (inactive); in the experiment with OVCAR-3, > 100 µM (inactive); with Malme-3M, > 100 µM (inactive); in the experiment with LOX IMVI, > 100 µM (inactive). Besides, the GI50 in the experiment on UACC-257 is > 100 µM (inactive); with SN12C, > 100 µM (inactive); in the experiment with MDA-MB-231, 27.8 µM (inactive); in the experiment on HOP-62, > 100 µM (inactive); in the experiment on SW-620, > 100 µM (inactive); with EKVX, > 100 µM (inactive). The GI50 in the experiment on ACHN is > 100 µM (inactive); in the experiment with SNB-75, 13.9 µM (inactive); in the experiment with UACC-62, > 100 µM (inactive); with OVCAR-8, 48.6 µM (inactive); with T47D it was 14.7 µM (inactive); with M14, > 100 µM (inactive). The GI50 with 786-0 is 46 µM (inactive).

Turning to `Nc1nc(Cl)c(N)c(NCC2(CO)CCC(CCc3ccccc3)C2)n1` (configuration not stated), the GI50 is 0.759 µM (active) in the experiment with MOLT-4; 12.2 µM (inactive) with HCT-116; 12.6 µM (inactive) in the experiment with NCI-H460; 18.7 µM (inactive) with OVCAR-3; 1.83 µM (inactive) with Malme-3M; 11.5 µM (inactive) with LOX IMVI. The GI50 is 0.461 µM (active) in the experiment with UACC-257; 22.8 µM (inactive) with SN12C; 17 µM (inactive) in the experiment with MDA-MB-231; 17 µM (inactive) with HOP-62; 2.08 µM (inactive) in the experiment with SW-620; 3.15 µM (inactive) in the experiment with EKVX. Besides, the GI50 is 18.7 µM (inactive) with ACHN; 25.4 µM (inactive) in the experiment with SNB-75; 12.1 µM (inactive) in the experiment on UACC-62; 14 µM (inactive) with OVCAR-8; 1.56 µM (inactive) in the experiment with T47D; 13.1 µM (inactive) with M14. Besides, in the experiment on 786-0, the GI50 is 20.4 µM (inactive).

Consider `COC(=O)C1=C(c2cc(OC)c(OC)c(OC)c2)OC(c2cc(OC)c(OC)c(OC)c2)C1` (configuration not stated), for which the GI50 with MOLT-4 was 22.9 µM (inactive); in the experiment with HCT-116, 17 µM (inactive); in the experiment with NCI-H460 it was 28.4 µM (inactive); with OVCAR-3, 22.1 µM (inactive); in the experiment with Malme-3M, 31.3 µM (inactive); in the experiment with LOX IMVI, 17.9 µM (inactive). Further, the GI50 was 23.9 µM (inactive) in the experiment on UACC-257; 19.2 µM (inactive) in the experiment on SN12C; 37.8 µM (inactive) with HOP-62; 34.4 µM (inactive) in the experiment with SW-620; 20.2 µM (inactive) in the experiment on ACHN; 23.7 µM (inactive) with SNB-75. In addition, the GI50 was 12.8 µM (inactive) with UACC-62; 32.1 µM (inactive) in the experiment with OVCAR-8; 20.5 µM (inactive) in the experiment on M14; 24.8 µM (inactive) in the experiment on 786-0; 30.7 µM (inactive) in the experiment on DMS-114.
